From US10766872B2, “Compounds for the treatment of mycobacterial infections” (The Broad Institute, Inc., priority 2011, dated 2020)
Where a name gives a salt, the structure may show the parent alone. Read-outs that look alike come from different tables or passages of the source.

Test system: Mtb strain H37Rv
Assay: Antitubercular activity, OD600 based growth inhibition assay (IC90)
Format: cell-based, Mycobacterium tuberculosis
[1] = Mycobacterium tuberculosis, H37RV, 168 h, Mtb H37Rv, 7 days incubation, growth read by OD600, concentration giving 90% inhibition of growth of the control, read-out: IC90
[2] = Mtb H37Rv, 7 days incubation, growth read by OD600, concentration giving 90% inhibition of growth of the control, read-out: IC90

SMILES	IC90 [1]	other results
Cc1cc2oc(=O)cc(-c3ccccc3)c2c(C)c1-c1ccc(CN2CCOCC2)cc1 [Compound 1, 5,7-Dimethyl-6-(4-(morpholinomethyl)phenyl)-4-phenyl-2H-chromen-2-one]	0.001 to 10 µM	
Cc1cc2oc(=O)cc(-c3ccccc3)c2c(C)c1-c1ccc(CN2CCCCC2)cc1 [Compound 2, 5,7-Dimethyl-4-phenyl-6-(4-(piperidine-1-ylmethyl)phenyl)-2H-chromen-2-one]	10 to 50 µM	
Cc1cc2oc(=O)cc(-c3ccccc3)c2c(C)c1-c1ccc(CNC2CCCCC2)cc1 [Compound 3, 6-(4-((Cyclohexylamino)methyl)phenyl)-5,7-dimethyl-4-phenyl-2H-chromen-2-one]	0.001 to 10 µM	
CCCCCCNCc1ccc(-c2c(C)cc3oc(=O)cc(-c4ccccc4)c3c2C)cc1 [Compound 4, 6-(4-((Hexylamino)methyl)phenyl)-5,7-dimethyl-4-phenyl-2H-chromen-2-one]	0.001 to 10 µM	
Cc1cc2oc(=O)cc(-c3ccccc3)c2c(C)c1-c1ccc(CN2CCN(C)CC2)cc1 [Compound 5, 5,7-Dimethyl-6-(4-((4-methylpiperazin-1-yl)methyl)phenyl)-4-phenyl-2H-chromen-2-one]	0.001 to 10 µM	
Cc1cc2oc(=O)cc(-c3cccc(N)c3)c2c(C)c1-c1ccc(CN2CCOCC2)cc1 [Compound 6, 4-(3-Aminophenyl)-5,7-dimethyl-6-(4-(morpholinomethyl)phenyl)-2H-chromen-2-one hydrochloride]		IC90 (Mycobacterium tuberculosis, H37RV, 168 h): 0.001 to 10 µM
Cc1cc2oc(=O)cc(-c3ccc(N)cc3)c2c(C)c1-c1ccc(CN2CCOCC2)cc1 [Compound 7, 4-(4-Aminophenyl)-5,7-dimethyl-6-(4-(morpholinomethyl)phenyl)-2H-chromen-2-one]	10 to 50 µM	
Cc1cc2oc(=O)cc(-c3cccc([N+](=O)[O-])c3)c2c(C)c1-c1ccc(CN2CCOCC2)cc1 [Compound 8, 5,7-Dimethyl-6-(4-(morpholinomethyl)phenyl)-4-(3-nitrophenyl)-2H-chromen-2-one]	0.001 to 10 µM	
COC(=O)c1cccc(-c2cc(=O)oc3cc(C)c(-c4ccc(CN5CCOCC5)cc4)c(C)c23)c1 [Compound 9, Methyl 3-(5,7-dimethyl-6-(4-(morpholinomethyl)phenyl)-2-oxo-2H-chromen-4-yl)benzoate]	50 to 100 µM	
CC(=O)Nc1cccc(-c2cc(=O)oc3cc(C)c(-c4ccc(CN5CCOCC5)cc4)c(C)c23)c1 [Compound 10, N-(3-(5,7-dimethyl-6-(4-(morpholinomethyl)phenyl)-2-oxo-2H-chromen-4-yl)phenyl)acetamide]	10 to 50 µM	
Cc1cc2oc(=O)cc(-c3cccc(NS(C)(=O)=O)c3)c2c(C)c1-c1ccc(CN2CCOCC2)cc1 [Compound 11, N-(3-(5,7-dimethyl-6-(4-(morpholinomethyl)phenyl)-2-oxo-2H-chromen-4-yl)phenyl)methanesulfonamide]	50 to 100 µM	
CCOC(=O)Nc1cccc(-c2cc(=O)oc3cc(C)c(-c4ccc(CN5CCOCC5)cc4)c(C)c23)c1 [Compound 12, Ethyl (3-(5,7-dimethyl-6-(4-(morpholinomethyl)phenyl)-2-oxo-2H-chromen-4-yl)phenyl)carbamate]		IC90 [2]: 10 to 50 µM
Cc1cc2oc(=O)cc(-c3cccnc3)c2c(C)c1-c1ccc(CN2CCOCC2)cc1 [Compound 13, 5,7-Dimethyl-6-(4-(morpholinomethyl)phenyl)-4-(pyridin-3-yl)-2H-chromen-2-one]	0.001 to 10 µM	
Cc1cc2oc(=O)cc(-c3ccccc3)c2c(C)c1-c1ccc(C#N)cc1 [Compound 14]	> 100 µM	
Cc1ccc(-c2c(C)cc3oc(=O)cc(-c4ccccc4)c3c2C)cc1 [Compound 15]	10 to 50 µM	
COc1ccc(-c2c(C)cc3oc(=O)cc(-c4ccccc4)c3c2C)cc1 [Compound 16]	> 100 µM	
COc1ccccc1-c1c(C)cc2oc(=O)cc(-c3ccccc3)c2c1C [Compound 17]	> 100 µM	
COc1cccc(-c2c(C)cc3oc(=O)cc(-c4ccccc4)c3c2C)c1 [Compound 18]	10 to 50 µM	
Cc1cc2oc(=O)cc(-c3ccccc3)c2c(C)c1-c1ccc(O)cc1 [Compound 19]	> 100 µM	
Cc1cc2oc(=O)cc(-c3ccccc3)c2c(C)c1-c1ccc(CO)cc1 [Compound 20]		IC90 [2]: 0.001 to 10 µM
Cc1cc(CO)ccc1-c1c(C)cc2oc(=O)cc(-c3ccccc3)c2c1C [Compound 21]	10 to 50 µM	
Cc1cc2oc(=O)cc(-c3ccccc3)c2c(C)c1-c1ccc(CS)cc1 [Compound 22]	> 100 µM	
C=Cc1ccc(-c2c(C)cc3oc(=O)cc(-c4ccccc4)c3c2C)cc1 [Compound 23]	> 100 µM	
CCc1ccc(-c2c(C)cc3oc(=O)cc(-c4ccccc4)c3c2C)cc1 [Compound 24]	> 100 µM	
Cc1cc2oc(=O)cc(-c3ccccc3)c2c(C)c1-c1ccc(Cl)cc1 [Compound 25]	50 to 100 µM	

SMILES	IC90 [1]	other results
Cc1cc2oc(=O)cc(-c3ccccc3)c2c(C)c1-c1cccc(Cl)c1 [Compound 26]	> 100 µM	
Cc1cc2oc(=O)cc(-c3ccccc3)c2c(C)c1-c1ccccc1Cl [Compound 27]	10 to 50 µM	
Cc1cc2oc(=O)cc(-c3ccccc3)c2c(C)c1-c1ccc(F)cc1 [Compound 28]	10 to 50 µM	
Cc1cc2oc(=O)cc(-c3ccccc3)c2c(C)c1-c1cccc(F)c1 [Compound 29]	10 to 50 µM	
Cc1cc2oc(=O)cc(-c3ccccc3)c2c(C)c1-c1ccc(C(F)(F)F)cc1 [Compound 30]	10 to 50 µM	
Cc1cc2oc(=O)cc(-c3ccccc3)c2c(C)c1-c1cccc(C(F)(F)F)c1 [Compound 31]	> 100 µM	
CC(=O)c1ccc(-c2c(C)cc3oc(=O)cc(-c4ccccc4)c3c2C)cc1 [Compound 32]	> 100 µM	
Cc1cc2oc(=O)cc(-c3ccccc3)c2c(C)c1-c1ccc(C(C)O)cc1 (stereo not shown) [Compound 33]	0.001 to 10 µM	
CNC(=O)c1ccc(-c2c(C)cc3oc(=O)cc(-c4ccccc4)c3c2C)cc1 [Compound 34]	0.001 to 10 µM	
Cc1cc2oc(=O)cc(-c3ccccc3)c2c(C)c1-c1ccncc1 [Compound 35]	0.001 to 10 µM	
Cc1cnccc1-c1c(C)cc2oc(=O)cc(-c3ccccc3)c2c1C [Compound 36]	10 to 50 µM	
Cc1cc2oc(=O)cc(-c3ccccc3)c2c(C)c1-c1cccnc1 [Compound 37]	50 to 100 µM	
COc1ncc(-c2c(C)cc3oc(=O)cc(-c4ccccc4)c3c2C)cn1 [Compound 38]	> 100 µM	
COc1ncc(-c2c(C)cc3oc(=O)cc(-c4ccccc4)c3c2C)c(OC)n1 [Compound 39]	10 to 50 µM	
Cc1cc2oc(=O)cc(-c3ccccc3)c2c(C)c1-c1cnc(C)c2ccccc12 [Compound 40]	> 100 µM	
Cc1cc2oc(=O)cc(-c3ccccc3)c2c(C)c1-c1cncnc1 [Compound 41]	0.001 to 10 µM	
Cc1ccc(/C=C/c2c(C)cc3oc(=O)cc(-c4ccccc4)c3c2C)cc1 [Compound 42]	50 to 100 µM	
CCOC(=O)Nc1cccc(-c2cc(=O)oc3cc(C)c(-c4ccc(CN5CCOCC5)cc4)c(C)c23)c1 [Compound 43]		IC90 [2]: > 100 µM
COc1ccc(-c2cc(=O)oc3cc(C)c(-c4ccc(CN5CCOCC5)cc4)c(C)c23)cc1 [Compound 44]	> 100 µM	
Cc1ccc(-c2ccc3oc(=O)cc(-c4ccccc4)c3c2)cc1 [Compound 45]	> 100 µM	
O=c1cc(-c2ccccc2)c2cc(-c3ccc(CO)cc3)ccc2o1 [Compound 47]	> 100 µM	
Cc1cc2oc(=O)cc(-c3ccccc3)c2cc1-c1ccc(CO)cc1 [Compound 48]	50 to 100 µM	
Cc1c(-c2ccc(CO)cc2)ccc2oc(=O)cc(-c3ccccc3)c12 [Compound 49]	50 to 100 µM	
Cc1cc2oc(=O)cc(-c3ccccc3)c2c(C)c1-c1ccc(CO)cc1 [Compound 50]		IC90 [2]: > 100 µM
